Laboratory results: US6921811B2, “Bioactive coating composition and methods” (BioSurface Engineering Technologies, Inc., priority 1998, dated 2005)
Marks after values point to notes of the source that are not given here.

Assays:
[1] = test system: C3H10T1/2 (murine fibroblasts); test: Cell attachment, spreading and growth on coated low-attachment polystyrene wells; assay type: cell-based
Description: (§1) Several cell types were used, including GS-9L cells (rat gliosarcoma), C3H10T1/2 (murine fibroblasts), Jurkat (human T cell), bovine aorta endothelial (BAE) cells and rat lymphocytes. GS-9L and C3H10T1/2 cells were maintained in log phase growth and detached from cultureware using Versene and collected by centrifugation. Jurkat cells grew as single cell suspensions and were collected by centrifugation. Rat lymphocytes were collected from heparinized blood by density gradient isolation over Ficoll-Hypaque® media. The collected cells were rinsed once by low speed centrifugation and suspended in either serum-free Dulbecco's Modified Eagles Medium (DMEM) containing pyruvate or RPMI 1640 containing 10% fetal bovine serum (FBS) supplemented with pyruvate. Aliquots of 10^4 cells in 100 μL were used in subsequent adhesion studies.
(§2) The cells were examined after plating using an inverted, phase-contrast microscope. At selected time points up to 4 days after initial seeding, the cells were rinsed three times in saline and fixed in buffered 10% formalin or 35% ethanol. In some cases, the cells were stained in situ with a 0.01 % aqueous solution of crystal violet. The amount of attachment was scored visually or quantitated. To establish the relative number of cells bound, crystal violet stained cells were dissolved in a solution of 70% ethanol containing 0.1% sodium dodecyl sulfate and 0.38 M Tris and the absorbance monitored at 610 nm, using the methods of Scragg and Ferreira (Anal Biochem 198:80-5, 1991) and Grando et al. (Skin Pharmacol 6:135-47, 1993).
(§3) The cells of Example 7 were added to untreated polystyrene wells, wells coated with silyl-heparin as in Example 4, with silyl-heparin-fibronectin as in Example 5, and with only fibronectin by incubation as described in Example 5. […] Cells were seeded at a concentration of 10^4 cells/well in serum-containing medium.
The cells grew to confluency by 4 days. […] No effort was made to grow the cells in a defined- or serum-low medium known to support growth. […]

C3H10T1/2 cells [2] = test: C3H10T1/2 cell attachment to a variety of coated substrates; assay type: cell-based, murine
Protocol: as §2
The general applicability of silyl-heparin-fibronectin complex was evaluated by applying this coating using the methods of Examples 4 and 5 to a variety of surfaces, including polystyrene, polylactide:polyglycolide, polycaprolactone, polyurethane and stainless steel. […] They did, however, bind moderately well to polylactide:polyglycolide and to polycaprolactone, and very well to stainless steel.

C3H10T1/2 cells [3] = test: Attachment of C3H10T1/2 cells to silyl-heparin coated wells complexed with adhesive molecules, crystal violet; assay type: cell-based, murine; design: unit not given here; settings: after two hours; hydrogel-polystyrene 96-well plates coated with silyl-heparin complexes and the listed adhesive molecule; proteins 100 μg/ml, serum undiluted
Protocol: Attachment of C3H10T1/2 cells after two hours to wells of 96-well, hydrogel-polystyrene plates coated with silyl-heparin complexes and the listed adhesive molecule was detected by staining with crystal violet. All proteins were used at a concentration of 100 μg/ml in buffered saline. Serum was used without dilution. Statistical significance was assessed relative to the values from buffered saline using Student's t-test, with * indicating p<0.05, ** indicating p<0.01 and *** indicating p<0.001.

[4] = affinity binding of fibronectin to heparin; cited from earlier work
[5] = test system: GS-9L cells (rat gliosarcoma); test: Cell attachment, spreading and growth on coated low-attachment polystyrene wells; assay type: cell-based; settings: 10^4 cells/well, serum-containing medium
Description: as §1, §2, §3
The cells grew to confluency by 4 days. […] No effort was made to grow the cells in a defined- or serum-low medium known to support growth.

C3H10T1/2 cells [6] = test: Cross-titration of fibronectin and silyl-heparin needed to support cell attachment; assay type: cell-based, murine; settings: fibronectin titrated from 4 μg/well on silyl-heparin applied at 30 μg/well; 24 hours; crystal violet, 610 nm
Protocol: The optimal amount of fibronectin and silyl-heparin to support attachment of C3H10T1/2 cells was determined by cross-titration, as shown on FIG. 1. […] The fall-off for the silyl-heparin was more gradual. The curve of the relative amount of silyl-heparin on the substrate following serial dilution generally followed the cell attachment curve.
In FIG. 1, fibronectin (Δ—Δ) or silyl-heparin (•—•) were titrated to determine the quantity needed to support attachment of C3H10T1/2 cells. All dilutions were performed in quadruplicate in wells of 96-well plates of low-attachment polystyrene. For titration of fibronectin, silyl-heparin was applied at 30 μg/well in 70% ethanol as in Example 4. After rinsing, fibronectin was applied in doubling dilutions of phosphate buffered saline starting from 4 μg/well. For titration of silyl-heparin, silyl-heparin was applied in doubling dilutions in 70% ethanol starting from silyl-heparin concentrations of 30 μg/well. Fibronectin was then applied in saline at 4 μg/well. Cells were at a concentration of 10^4 cells/well in growth medium. For both experiments, the cells were allowed 24 hours to attach and then were rinsed and fixed in buffered formalin. The cells were stained for 5 minutes with 0.01% aqueous crystal violet and the absorbance at 610 nm determined.

bFGF = target: T1, bFGF (Homo sapiens, UniProt P09038); test: Effect of adhesive molecules complexed to silyl-heparin on subsequent bFGF binding; settings: adhesive molecule complexed to silyl-heparin at 100 μg/mL before bFGF
T1 construct: purchased Sigma Chemical Co
Protocol: Wells of 96 well polystyrene microtiter plates, with a well surface area of 0.32 cm^2, were coated with 30 μl of silyl heparin for 15 minutes at 37° C. After rinsing and air-drying, bFGF (Sigma Chemical Co.) in PBS/BSA was added in 150 μL aliquots in doubling dilutions. The plate was incubated at 37° C. for 1 hour and rinsed 5 times in PBS. An aliquot 150 μl of PBS/BSA containing 1:500 rabbit anti-FGF antibodies were added, incubated for 1 hour and rinsed. In some cases an irrelevant rabbit antibody was used at a similar concentration (rabbit anti-TGF-receptor II, Santa Cruz Biotechnology). An aliquot of PBS/BSA containing 1:500 HRPO-conjugated donkey anti-rabbit IgG added, and after incubation and rinsing ABTS-chromogen added. All antibody solutions were filtered through 0.2 micron filters prior to use. The absorbance was monitored at 405 nm. […] When anti-TGF-II (irrelevant antibody directed against the transforming growth factor receptor) was used instead of anti-FGF and at the same anti-dilutions, no bFGF was detected. When TGF-β, at a concentration of 40 ng was used as the growth factor molecule, no activity was detected with anti-bFGF antibodies.
Murine type IV collagen, human fibrinogen and bovine fibronectin isolated from plasma were bound to silyl-heparin complexes bound to wells of polystyrene microtiter plates, at a concentration of 100 μg/mL in PBS/BSA. […]

[7] = test system: Bovine aorta endothelial cells; test: Capillary tube formation on coated low attachment wells; assay type: cell-based; settings: 5×10^3 cells per well; DMEM containing 10% FBS; 4 days; phase contrast microscopy
Protocol: Low attachment 96 well plates were coated with saline, silyl-heparin complex, silyl-heparin-fibrinogen complex or silyl-heparin-bFGF complex. Bovine aorta endothelial cells (5×10^3 cells) were seeded into each well in DMEM containing 10% FBS. The cells were allowed to grow for 4 days and the cultures examined by phase contrast microscopy.

T1 sequence (P09038 143-288, species assumed): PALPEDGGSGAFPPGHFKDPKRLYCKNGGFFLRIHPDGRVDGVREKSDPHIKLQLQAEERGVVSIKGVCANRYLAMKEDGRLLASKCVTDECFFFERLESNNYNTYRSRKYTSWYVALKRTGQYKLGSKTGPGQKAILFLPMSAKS

For heparin [reference compound], the “effect of heparin added to the medium on attachment or growth of cells” value ([1]; up to 10 U of heparin, C3H10T1/2 plated onto silyl-heparin-fibronectin coated plates) was “did not inhibit the attachment or growth” and the “effect of coating or treatment on C3H10T1/2 cell attachment” value (C3H10T1/2 cells [2]; regardless of the substrate) was “did not inhibit attachment”.
For “fibronectin: bovine plasma fibronectin, adhesive molecule”, the “attachment of C3H10T1/2 cells by crystal violet staining, Average ± S.E.” value (shortened to “attachment of C3H10T1/2 cells … Average ± S.E.”) (C3H10T1/2 cells [3]) is given as 1.00 ± 0.10**, the “CELL ATTACHMENT” value ([1]; C3H10T1/2, coated low-attachment polystyrene wells, 10^4 cells/well, serum-containing medium) is given as “isolated C3H10T1/2 cells and isolated GS-9L cells were found attached” and the affinity constant [4] is given as “approximately 10^8 M/L”. The “C3H10T1/2 CELL ATTACHMENT” value (C3H10T1/2 cells [2]; surface: Polyactide:polyglycolide) was “improve the attachment of cells”, the “C3H10T1/2 CELL ATTACHMENT” value (C3H10T1/2 cells [2]; surface: Polystyrene) was “did not significantly support cell attachment” and the “C3H10T1/2 CELL ATTACHMENT” value (C3H10T1/2 cells [2]; surface: Polyurethane) was “improve the attachment of cells”. For the same substance, the “CELL ATTACHMENT” value [5] was “isolated C3H10T1/2 cells and isolated GS-9L cells were found attached”, the “EC50 to support attachment of C3H10T1/2 cells” value (C3H10T1/2 cells [6]) was “approximately 0.5 μg/well” and the “effect on binding of bFGF to the silyl-heparin-adhesive molecule complex” value (bFGF) was “significantly decreased the binding of bFGF”.
With gelatin the “attachment of C3H10T1/2 cells … Average ± S.E.” value (C3H10T1/2 cells [3]) was 0.15 ± 0.05.
For “transferrin: protein used at 100 μg/ml on silyl-heparin coated wells”, the “attachment of C3H10T1/2 cells … Average ± S.E.” value (C3H10T1/2 cells [3]) was 0.15 ± 0.03.
In the case of fibrinogen, the “attachment of C3H10T1/2 cells … Average ± S.E.” value (C3H10T1/2 cells [3]) is reported as 1.63 ± 0.17**, the capillary tube formation [7] is reported as “Tubes did not form” and the “effect on binding of bFGF to the silyl-heparin-adhesive molecule complex” value (bFGF) is reported as “less significant decrease in binding”.
For “bFGF: basic fibroblast growth factor (Sigma Chemical Co.)”, the capillary tube formation [7] was “Tubes did not form”.
In the case of poly-l-lysine [reference compound], the “attachment of C3H10T1/2 cells … Average ± S.E.” value (C3H10T1/2 cells [3]) is reported as 1.18 ± 0.06***.
For poly-l-ornithine [reference compound], the “attachment of C3H10T1/2 cells … Average ± S.E.” value (C3H10T1/2 cells [3]) was 0.92 ± 0.28*.
